This passage reports IC50 results from patent US9359308B2, “Pyrazine kinase inhibitors” (Portola Pharmaceuticals, Inc., priority 2011, dated 2016).

For this assay, the target named is T1, full length active recombinant SYK enzyme (Homo sapiens, UniProt P43405).
T1 construct: full length active recombinant SYK enzyme (Millipore, Calif.); purchased Millipore
In words: Inhibition of Syk tyrosine phosphorylation activity (LANCE TR-FRET kinase assay). Type of assay: biochemical. The following applies: activity in the Syk assays, class symbols. The method, boiled down:
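IC50 was derived by non-linear regression of TR-FRET signal (Eu-W1024-PY100 donor, streptavidin-APC acceptor) read 1 h after EDTA quench. The kinase step ran 1 h at room temperature with 1 nM full-length SYK, 550 nM biotinylated DEEDYESP substrate and 100 μM ATP in Tris pH 7.5/MgCl2/DTT at 3% final DMSO.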

As for `CC[C@@H](Nc1cnc(C(N)=O)c(Nc2ccc(-c3cnn(C)c3)cc2)n1)C(N)=O` [Example 359, (R)-5-(1-amino-1-oxobutan-2-ylamino)-3-(4-(1-methyl-1H-pyrazol-4-yl)phenylamino)pyrazine-2-carboxamide], the IC50 was 1 to 10 nM.

Consider `NC(=O)c1ncc(N[C@@H]2CCCC(F)(F)[C@@H]2N)nc1Nc1cnc2ccccc2c1` [Example 102, 5-((1R,2R)-2-amino-3,3-difluorocyclohexylamino)-3-(quinolin-3-ylamino)pyrazine-2-carboxamide], for which the half-maximal inhibitory concentration (IC50) is 10 to 100 nM.

As to `CC[C@@H](Nc1nc(Nc2snc(C)c2I)c(C(N)=O)nc1I)C(N)=O` [Example 134, (R)-5-((1-amino-1-oxobutan-2-yl)amino)-6-iodo-3-((4-iodo-3-methylisothiazol-5-yl)amino)pyrazine-2-carboxamide], the IC50 lay in the range of 100 to 1000 nM.

Consider `NC(=O)c1ncc(N[C@@H]2CCCC(F)(F)[C@@H]2N)nc1Nc1ccc(-c2ccncc2)cc1` [Example 26, 5-((1R,2R)-2-amino-3,3-difluorocyclohexylamino)-3-(4-(pyridin-4-yl)phenylamino)pyrazine-2-carboxamide], for which the IC50 fell in the range of 10 to 100 nM.

With `CC(C)[C@@H](Nc1cnc(C(N)=O)c(Nc2cccc(CN3CCOCC3)c2)n1)C(N)=O` [Example 144, (R)-5-(1-amino-3-methyl-1-oxobutan-2-ylamino)-3-(3-(morpholinomethyl)phenylamino)pyrazine-2-carboxamide], the concentration for half-maximal inhibition (IC50) lay in the range of 100 to 1000 nM.

`NC(=O)c1ncc(N[C@@H]2CCNC2)nc1Nc1cnn2ccccc12` [Example 107, (R)-3-(pyrazolo[1,5-a]pyridin-3-ylamino)-5-(pyrrolidin-3-ylamino)pyrazine-2-carboxamide]: the IC50 lay within 10 to 100 nM.

`NC(=O)c1ncc(N[C@@H]2CCCC[C@@H]2N)nc1Nc1cnc2ccncc2c1` [Example 433, 3-((1,6-naphthyridin-3-yl)amino)-5-(((1R,2S)-2-aminocyclohexyl)amino)pyrazine-2-carboxamide]: the concentration for half-maximal inhibition (IC50) lay in the range of 1 to 10 nM.

As for `CC[C@@H](Nc1cnc(C(N)=O)c(Nc2cc(OC)cc(OC)c2)n1)C(N)=O` [Example 158, (R)-5-(1-amino-1-oxobutan-2-ylamino)-3-(3,5-dimethoxyphenylamino)pyrazine-2-carboxamide], the IC50 lay within 10 to 100 nM.

As to `CC[C@@H](Nc1cnc(C(N)=O)c(Nc2ccc(OC)nc2)n1)C(N)=O` [Example 317, (R)-5-(1-amino-1-oxobutan-2-ylamino)-3-(6-methoxypyridin-3-ylamino)pyrazine-2-carboxamide], the IC50 lay in the range of 10 to 100 nM.

`COc1ncc(Nc2nc(N[C@@H]3CCCC[C@@H]3N)cnc2C(N)=O)cc1C` [Example 306, 5-((1R,2S)-2-aminocyclohexylamino)-3-(6-methoxy-5-methylpyridin-3-ylamino)pyrazine-2-carboxamide]: the IC50 was in the range of 1 to 10 nM.

Regarding `CS(=O)(=O)c1ccc(Nc2nc(N[C@H](CC3CC3)C(N)=O)cnc2C(N)=O)cc1` [Example 166, (R)-5-(1-amino-3-cyclopropyl-1-oxopropan-2-ylamino)-3-(4-(methylsulfonyl)phenylamino)pyrazine-2-carboxamide], the IC50 is 1 to 10 nM.

`CCc1ccc(Nc2nc(N[C@H](CC)C(N)=O)cnc2C(N)=O)cn1` [Example 340, (R)-5-(1-amino-1-oxobutan-2-ylamino)-3-(6-ethylpyridin-3-ylamino)pyrazine-2-carboxamide]: the IC50 lay in the range of 10 to 100 nM.

Turning to `CC(C)c1cc(Nc2nc(N[C@H](C)C(N)=O)cnc2C(N)=O)sn1` [Example 241, (R)-5-(1-amino-1-oxopropan-2-ylamino)-3-(3-isopropylisothiazol-5-ylamino)pyrazine-2-carboxamide], the IC50 is 1 to 10 nM.

Turning to `NC(=O)c1ncc(N[C@@H]2CCCC[C@@H]2N)nc1Nc1cnc2ncccc2c1` [Example 420, 3-((1,8-naphthyridin-3-yl)amino)-5-(((1R,2S)-2-aminocyclohexyl)amino)pyrazine-2-carboxamide], the IC50 was 1 to 10 nM.

In the case of `NC(=O)c1ncc(N[C@@H]2CCCC(F)(F)[C@@H]2N)nc1Nc1cc(F)c2ncccc2c1` [Example 210, 5-((1R,2R)-2-amino-3,3-difluorocyclohexylamino)-3-(8-fluoroquinolin-6-ylamino)pyrazine-2-carboxamide], the half-maximal inhibitory concentration (IC50) lay in the range of 1 to 10 nM.

For the molecule `CC[C@@H](Nc1cnc(C(N)=O)c(Nc2cc(COC)ns2)n1)C(N)=O` [Example 257, (R)-5-(1-amino-1-oxobutan-2-ylamino)-3-(3-(methoxymethyl)isothiazol-5-ylamino)pyrazine-2-carboxamide], the IC50 is 10 to 100 nM.

Take `Cc1ccc(Nc2nc(N[C@H](CC3CC3)C(N)=O)cnc2C(N)=O)cc1C` [Example 172, (R)-5-(1-amino-3-cyclopropyl-1-oxopropan-2-ylamino)-3-(3,4-dimethylphenylamino)pyrazine-2-carboxamide]: the IC50 was 1 to 10 nM.

As to `NC(=O)c1ncc(N[C@@H]2CCCC(F)(F)[C@@H]2N)nc1Nc1ccc2c(c1)CCC2` [Example 454, 5-(((1R,2R)-2-amino-3,3-difluorocyclohexyl)amino)-3-((2,3-dihydro-1H-inden-5-yl)amino)pyrazine-2-carboxamide], the IC50 lay within 10 to 100 nM.

Take `NC(=O)c1ncc(N[C@@H]2CCCC[C@@H]2N)nc1Nc1ccnnc1` [Example 213, 5-((1R,2S)-2-aminocyclohexylamino)-3-(pyridazin-4-ylamino)pyrazine-2-carboxamide]: the IC50 lay within 10 to 100 nM.

For `NC(=O)c1ncc(N[C@@H]2CCCC[C@@H]2N)nc1Nc1ccc(-c2ncco2)cc1` [Example 445, 5-(((1R,2S)-2-aminocyclohexyl)amino)-3-((4-(oxazol-2-yl)phenyl)amino)pyrazine-2-carboxamide], the IC50 was in the range of 1 to 10 nM.

Regarding `NC(=O)c1ncc(N[C@@H]2CCCC[C@@H]2N)nc1Nc1cnc2ccc(F)cc2c1` [Example 198, 5-((1R,2S)-2-aminocyclohexylamino)-3-(6-fluoroquinolin-3-ylamino)pyrazine-2-carboxamide], the concentration for half-maximal inhibition (IC50) is 1 to 10 nM.

Consider `NC(=O)c1ncc(N[C@@H]2CCCC[C@@H]2N)nc1Nc1cccc(C(F)(F)F)c1` [Example 199, 5-((1R,2S)-2-aminocyclohexylamino)-3-(3-(trifluoromethyl)phenylamino)pyrazine-2-carboxamide], for which the IC50 was in the range of 1 to 10 nM.

On to `Cc1cc(Nc2nc(N[C@@H](C(N)=O)C(C)C)cnc2C(N)=O)sn1` [Example 212, (R)-5-(1-amino-3-methyl-1-oxobutan-2-ylamino)-3-(3-methylisothiazol-5-ylamino)pyrazine-2-carboxamide], for which the IC50 is 1 to 10 nM.

As for `NC(=O)c1ncc(N[C@@H]2CCCC(F)(F)[C@@H]2N)nc1Nc1ccnc(C2CC2)c1` [Example 346, 5-((1R,2R)-2-amino-3,3-difluorocyclohexylamino)-3-(2-cyclopropylpyridin-4-ylamino)pyrazine-2-carboxamide], the IC50 lay in the range of 1 to 10 nM.

For the molecule `Cc1ccc(Nc2nc(N[C@@H](C(N)=O)C(C)C)cnc2C(N)=O)cc1` [Example 155, (R)-5-(1-amino-3-methyl-1-oxobutan-2-ylamino)-3-(p-tolylamino)pyrazine-2-carboxamide], the IC50 lay in the range of 10 to 100 nM.

For `CC[C@@H](Nc1cnc(C(N)=O)c(Nc2ccnc3ccccc23)n1)C(N)=O` [Example 370, (R)-5-(1-amino-1-oxobutan-2-ylamino)-3-(quinolin-4-ylamino)pyrazine-2-carboxamide], the IC50 fell in the range of 1 to 10 nM.

Take `CC[C@@H](Nc1cnc(C(N)=O)c(Nc2ccnc(C(F)(F)F)c2)n1)C(N)=O` [Example 349, (R)-5-(1-amino-1-oxobutan-2-ylamino)-3-(2-(trifluoromethyl)pyridin-4-ylamino)pyrazine-2-carboxamide]: the 50% inhibitory concentration (IC50) lay in the range of 10 to 100 nM.

Turning to `Cc1ccc(Nc2nc(N[C@@H]3CCOC[C@@H]3N)cnc2C(N)=O)cc1` [Example 78, 5-((3R,4R)-3-aminotetrahydro-2H-pyran-4-ylamino)-3-(p-tolylamino)pyrazine-2-carboxamide], the IC50 was in the range of 1 to 10 nM.

On to `CC(C)[C@@H](Nc1cnc(C(N)=O)c(Nc2ccc(CS(C)(=O)=O)cc2)n1)C(N)=O` [Example 150, (R)-5-(1-amino-3-methyl-1-oxobutan-2-ylamino)-3-(4-(methylsulfonylmethyl)phenylamino)pyrazine-2-carboxamide], for which the IC50 fell in the range of 100 to 1000 nM.

As to `NC(=O)c1ncc(N[C@@H]2CCCC[C@@H]2N)nc1Nc1cncc(-c2ncccn2)c1` [Example 422], the IC50 lay in the range of 1 to 10 nM.

`CC(C)C[C@@H](Nc1cnc(C(N)=O)c(Nc2ccc(C(=O)N3CCC3)nc2)n1)C(N)=O` [Example 282, (R)-5-(1-amino-4-methyl-1-oxopentan-2-ylamino)-3-(6-(azetidine-1-carbonyl)pyridin-3-ylamino)pyrazine-2-carboxamide]: the IC50 was 1 to 10 nM.

With `COc1cc(Nc2nc(N[C@@H]3CCCC(F)(F)[C@@H]3N)cnc2C(N)=O)cc(OC)c1` [Example 168, 5-((1R,2R)-2-amino-3,3-difluorocyclohexylamino)-3-(3,5-dimethoxyphenylamino)pyrazine-2-carboxamide], the IC50 lay in the range of 10 to 100 nM.

In the case of `CC[C@@H](Nc1cnc(C(N)=O)c(Nc2cccc3cnccc23)n1)C(N)=O` [Example 378, (R)-5-(1-amino-1-oxobutan-2-ylamino)-3-(isoquinolin-5-ylamino)pyrazine-2-carboxamide], the concentration for half-maximal inhibition (IC50) lay within 10 to 100 nM.

For the molecule `CC(C)[C@@H](Nc1cnc(C(N)=O)c(Nc2ccc(-n3ccnc3)cc2)n1)C(N)=O` [Example 149, (R)-3-(4-(1H-imidazol-1-yl)phenylamino)-5-(1-amino-3-methyl-1-oxobutan-2-ylamino)pyrazine-2-carboxamide], the IC50 was in the range of 10 to 100 nM.

Turning to `CC[C@@H](Nc1cnc(C(N)=O)c(Nc2cccnc2)n1)C(N)=O` [Example 181, (R)-5-(1-amino-1-oxobutan-2-ylamino)-3-(pyridin-3-ylamino)pyrazine-2-carboxamide], the IC50 was in the range of 10 to 100 nM.

A word on the IC50: it is the concentration that inhibits the measured activity by half.
